In patent US20210338846A1, “COMPETITIVE PROSTATE-SPECIFIC MEMBRANE ANTIGEN (PSMA) BINDING AGENTS FOR REDUCTION OF NON-TARGET ORGAN UPTAKE OF RADIOLABELED PSMA INHIBITORS FOR PSMA POSITIVE TUMOR IMAGING AND RADIOPHARMACEUTICAL THERAPY” (The Johns Hopkins University, priority 2018, published 2021):
Where two headings read alike, the source gives them in different places.

Test system: PSMA+ PC-3 PiP and PSMA− PC-3 flu tumors
[1] = 1 h, co-injection 0.5 nmole YC-I-27
[2] = 4 h, co-injection 0.5 nmole YC-I-27
[3] = 24 h, co-injection 0.5 nmole YC-I-27

## O=C(O)CC[C@H](NC(=O)N[C@@H](CCCCN(Cc1ccc([125I])cc1)C(=O)CCCCNC(=O)CN1CCN(CC(=O)O)CCN(CC(=O)O)CCN(CC(=O)O)CC1)C(=O)O)C(=O)O [[^125I]VK-02-90]
1 h, No CI
  Biodistribution: Blood: 1.1 ± 0.3 % injected dose/gram
  Biodistribution: Flu tumor: 1.4 ± 0.6 % injected dose/gram
  Biodistribution: Lacrimal gland: 17.4 ± 6.0 % injected dose/gram
  Biodistribution: PiP tumor: 58 ± 14 % injected dose/gram
  Biodistribution: Salivary gland: 5.1 ± 3.4 % injected dose/gram
  Biodistribution: kidneys: 194 ± 25 % injected dose/gram
  Biodistribution: spleen: 40 ± 16 % injected dose/gram
  Biodistribution: stomach: 1.1 ± 0.3 % injected dose/gram
[1]
  Biodistribution: Blood: 0.45 ± 0.06 % injected dose/gram
  Biodistribution: Flu tumor: 0.37 ± 0.05 % injected dose/gram
  Biodistribution: Lacrimal gland: 0.75 ± 0.33 % injected dose/gram
  Biodistribution: PiP tumor: 35 ± 10 % injected dose/gram
  Biodistribution: Salivary gland: 0.46 ± 0.06 % injected dose/gram
  Biodistribution: kidneys: 10.0 ± 1.1 % injected dose/gram
  Biodistribution: spleen: 0.8 ± 0.14 % injected dose/gram
  Biodistribution: stomach: 0.33 ± 0.07 % injected dose/gram
  Biodistribution: thyroid: 0.5 ± 0.3 % injected dose/gram
4 h, No CI
  Biodistribution: Blood: 0.2 ± 0.03 % injected dose/gram
  Biodistribution: Flu tumor: 0.3 ± 0.1 % injected dose/gram
  Biodistribution: Lacrimal gland: 1.9 ± 0.5 % injected dose/gram
  Biodistribution: PiP tumor: 38 ± 13 % injected dose/gram
  Biodistribution: Salivary gland: 0.7 ± 0.2 % injected dose/gram
  Biodistribution: kidneys: 162 ± 3.5 % injected dose/gram
  Biodistribution: spleen: 4.7 ± 1.2 % injected dose/gram
  Biodistribution: stomach: 0.4 ± 0.2 % injected dose/gram
[2]
  Biodistribution: Blood: 0.02 ± 0.004 % injected dose/gram
  Biodistribution: Flu tumor: 0.7 ± 0.01 % injected dose/gram
  Biodistribution: Lacrimal gland: 0.14 ± 0.08 % injected dose/gram
  Biodistribution: PiP tumor: 35 ± 5.0 % injected dose/gram
  Biodistribution: Salivary gland: 0.08 ± 0.04 % injected dose/gram
  Biodistribution: kidneys: 2.2 ± 0.3 % injected dose/gram
  Biodistribution: spleen: 0.2 ± 0.1 % injected dose/gram
  Biodistribution: stomach: 0.2 ± 0.07 % injected dose/gram
  Biodistribution: thyroid: 0.14 ± 0.1 % injected dose/gram
24 h, No CI
  Biodistribution: Blood: 0.02 ± 0.01 % injected dose/gram
  Biodistribution: Flu tumor: 0.04 ± 0.02 % injected dose/gram
  Biodistribution: Lacrimal gland: 0.5 ± 0.2 % injected dose/gram
  Biodistribution: PiP tumor: 51 ± 7 % injected dose/gram
  Biodistribution: Salivary gland: 0.3 ± 0.3 % injected dose/gram
  Biodistribution: kidneys: 31 ± 14 % injected dose/gram
  Biodistribution: spleen: 0.7 ± 0.4 % injected dose/gram
  Biodistribution: stomach: 0.05 ± 0.03 % injected dose/gram
[3]
  Biodistribution: Blood: 0.001 ± 0.001 % injected dose/gram
  Biodistribution: Flu tumor: 0.02 ± 0.01 % injected dose/gram
  Biodistribution: Lacrimal gland: 0.02 ± 0.04 % injected dose/gram
  Biodistribution: PiP tumor: 33 ± 6 % injected dose/gram
  Biodistribution: Salivary gland: 0.02 ± 0.01 % injected dose/gram
  Biodistribution: kidneys: 0.3 ± 0.03 % injected dose/gram
  Biodistribution: spleen: 0.05 ± 0.04 % injected dose/gram
  Biodistribution: stomach: 0.06 ± 0.02 % injected dose/gram
  Biodistribution: thyroid: 0.04 ± 0.08 % injected dose/gram
Tables 1, 2, and 3
  PSMA+ tumor uptake (in words): high PSMA+ tumor uptake
  kidney uptake (in words): high initial kidney uptake which clears over time

## O=C([O-])CN1CCN(CC(=O)[O-])CCN(CC(=O)NCCCCC(=O)N(CCCC[C@H](NC(=O)N[C@@H](CCC(=O)O)C(=O)O)C(=O)O)Cc2ccc([211At])cc2)CCN(CC(=O)[O-])CC1.[Lu+3] [[^211At]VK-02-90-Lu]
1 h, No CI
  Biodistribution: Blood: 0.8 ± 0.2 % injected dose/gram
  Biodistribution: Flu tumor: 0.4 ± 0.2 % injected dose/gram
  Biodistribution: Lacrimal gland: 0.8 ± 0.9 % injected dose/gram
  Biodistribution: PiP tumor: 31 ± 5 % injected dose/gram
  Biodistribution: Salivary gland: 0.5 ± 0.2 % injected dose/gram
  Biodistribution: kidneys: 90 ± 43 % injected dose/gram
  Biodistribution: spleen: 2.5 ± 0.9 % injected dose/gram
  Biodistribution: stomach: 0.4 ± 0.1 % injected dose/gram
[1]
  Biodistribution: Blood: 0.5 ± 0.1 % injected dose/gram
  Biodistribution: Flu tumor: 0.4 ± 0.1 % injected dose/gram
  Biodistribution: Lacrimal gland: 0 % injected dose/gram
  Biodistribution: PiP tumor: 25 ± 4 % injected dose/gram
  Biodistribution: Salivary gland: 0.4 ± 0.2 % injected dose/gram
  Biodistribution: kidneys: 2.2 ± 0.6 % injected dose/gram
  Biodistribution: spleen: 0.3 ± 0.4 % injected dose/gram
  Biodistribution: stomach: 0.4 ± 0.2 % injected dose/gram
4 h, No CI
  Biodistribution: Blood: 0.1 ± 0.03 % injected dose/gram
  Biodistribution: Flu tumor: 0.1 ± 0.1 % injected dose/gram
  Biodistribution: Lacrimal gland: 0.3 ± 1.1 % injected dose/gram
  Biodistribution: PiP tumor: 17 ± 5 % injected dose/gram
  Biodistribution: Salivary gland: 0.2 ± 0.1 % injected dose/gram
  Biodistribution: kidneys: 2.1 ± 0.6 % injected dose/gram
  Biodistribution: spleen: 0 % injected dose/gram
  Biodistribution: stomach: 0.3 ± 0.2 % injected dose/gram
[2]
  Biodistribution: Blood: 0.2 ± 0.1 % injected dose/gram
  Biodistribution: Flu tumor: 0.0 ± 0.04 % injected dose/gram
  Biodistribution: Lacrimal gland: 0 % injected dose/gram
  Biodistribution: PiP tumor: 19 ± 5 % injected dose/gram
  Biodistribution: Salivary gland: 0.3 ± 0.2 % injected dose/gram
  Biodistribution: kidneys: 0.7 ± 0.1 % injected dose/gram
  Biodistribution: spleen: 0.8 ± 0.5 % injected dose/gram
  Biodistribution: stomach: 0.4 ± 0.05 % injected dose/gram
24 h, No CI
  Biodistribution: Blood: 0 % injected dose/gram
  Biodistribution: Flu tumor: 0 % injected dose/gram
  Biodistribution: Lacrimal gland: 0 % injected dose/gram
  Biodistribution: PiP tumor: 9.5 ± 1.0 % injected dose/gram
  Biodistribution: Salivary gland: 0 % injected dose/gram
  Biodistribution: kidneys: 0.02 ± 0.02 % injected dose/gram
  Biodistribution: spleen: 0 % injected dose/gram
  Biodistribution: stomach: 0 % injected dose/gram
[3]
  Biodistribution: Blood: 0.03 ± 0.3 % injected dose/gram
  Biodistribution: Flu tumor: 0.2 ± 0.3 % injected dose/gram
  Biodistribution: Lacrimal gland: 0 % injected dose/gram
  Biodistribution: PiP tumor: 18 ± 8 % injected dose/gram
  Biodistribution: Salivary gland: 0 % injected dose/gram
  Biodistribution: kidneys: 0.4 ± 0.5 % injected dose/gram
  Biodistribution: spleen: 02.5 ± 4.3 % injected dose/gram
  Biodistribution: stomach: 0.4 ± 0.7 % injected dose/gram
